# In patent publication US20190134005A1 (BioMarin Pharmaceutical Inc., priority 2016, published 2019):
# Target: T1, human CGT (Homo sapiens, UniProt Q16880)
# T1 sequence (Q16880 21-541): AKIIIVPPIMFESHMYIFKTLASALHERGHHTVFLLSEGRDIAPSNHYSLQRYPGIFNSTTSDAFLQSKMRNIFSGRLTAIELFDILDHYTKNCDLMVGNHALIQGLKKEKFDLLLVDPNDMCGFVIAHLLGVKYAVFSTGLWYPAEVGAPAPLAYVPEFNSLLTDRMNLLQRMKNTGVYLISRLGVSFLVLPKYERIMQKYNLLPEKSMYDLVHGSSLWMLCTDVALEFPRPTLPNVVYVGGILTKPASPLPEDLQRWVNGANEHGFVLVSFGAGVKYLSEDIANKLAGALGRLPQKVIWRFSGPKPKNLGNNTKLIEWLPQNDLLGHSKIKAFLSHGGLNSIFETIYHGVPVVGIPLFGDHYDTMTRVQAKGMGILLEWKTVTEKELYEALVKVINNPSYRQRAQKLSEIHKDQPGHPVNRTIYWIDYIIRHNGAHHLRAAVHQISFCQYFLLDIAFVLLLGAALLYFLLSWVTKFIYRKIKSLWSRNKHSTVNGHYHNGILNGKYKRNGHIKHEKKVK
# Assay: Assay 1: CGT Enzymatic Assay (RapidFire/MS/MS, 0.01% Tween 80)
# Type: biochemical
# Conditions: Table 1, Compounds of Formula (I) and Formula (II); CGT enzymatic assay, C6-NBD-dihydro-galactosylceramide readout; read-out: IC50
row,Structure (SMILES),IC50 [nM]
1,"Cc1ccc(N2C(=O)N(c3ccc(Cl)cc3)C(O)(c3cccc(C#N)c3)C2(C)C)cc1 (centres unmarked) [Example 317, 3-(3-(4-chlorophenyl)-4-hydroxy-5,5-dimethyl-2-oxo-1-(p-tolyl)imidazolidin-4-yl)benzonitrile]",< 1000
2,"COc1ccc(N2C(=O)N(c3ccc(OC)cc3)C(O)(c3cccc(OC(F)(F)F)c3)[C@H]2C(C)C)cc1 (stereo partly drawn) [Example 329-2, (5R)-4-hydroxy-5-isopropyl-1,3-bis(4-methoxyphenyl)-4-(3-(trifluoromethoxy)phenyl)imidazolidin-2-one]",< 1000
3,"N#Cc1ccc(N2C(=O)N(c3ccc(C#N)cc3)C(O)(c3cccc(OC(F)(F)F)c3)C23COC3)cc1 (centres unmarked) [Compound 275, 4,4′-(8-hydroxy-6-oxo-8-(3-(trifluoromethoxy)phenyl)-2-oxa-5,7-diazaspiro[3.4]octane-5,7-diyl)dibenzonitrile]",< 1000
4,"CCc1ccc(N2C(=O)N(c3ccc(C#N)cc3)C3(COC3)C2(O)c2cccc(OC(F)(F)F)c2)cc1 (centres unmarked) [Example 337, 4-(7-(4-ethylphenyl)-8-hydroxy-6-oxo-8-(3-(trifluoromethoxy)phenyl)-2-oxa-5,7-diazaspiro[3.4]octan-5-yl)benzonitrile]",< 1000
5,"Cc1ccc(N2C(=O)N(c3ccc(C#N)cc3)C(C)(C)C2(O)c2cccc(C#N)c2)cc1 (centres unmarked) [Compound 270, 3-(1-(4-cyanophenyl)-4-hydroxy-5,5-dimethyl-2-oxo-3-(p-tolyl)imidazolidin-4-yl)benzonitrile]",< 1000
6,"Cc1ccc(N2C(=O)N(c3ccc(C)cc3)C(O)(c3cccc(C(C)(F)F)c3)C23COC3)cc1 (centres unmarked) [Compound 286, 8-(3-(1,1-difluoroethyl)phenyl)-8-hydroxy-5,7-di-p-tolyl-2-oxa-5,7-diazaspiro[3.4]octan-6-one]",< 1000
7,"C[C@]1(C(F)(F)F)N(c2ccc(Cl)cc2)C(=O)N(c2ccc(Cl)cc2)C1(O)c1cc(C#N)cc(C#N)c1 (stereo partly drawn) [Example 331-1, 5-((5S)-1,3-bis(4-chlorophenyl)-4-hydroxy-5-methyl-2-oxo-5-(trifluoromethyl)imidazolidin-4-yl)isophthalonitrile]",< 1000

# Same assay, conditions: Table 1, Compounds of Formula (I) and Formula (II); CGT enzymatic assay; read-out: IC50
row,Structure (SMILES),IC50 [nM]
1,"O=c1n(-c2ccc(Cl)cc2)c(-c2cccc(OC(F)(F)F)c2)c(C2CC2)n1-c1ccc(Cl)cc1 [Compound 65, 1,3-bis(4-chlorophenyl)-4-cyclopropyl-5-(3-(trifluoromethoxy)phenyl)-1,3-dihydro-2H-imidazol-2-one]",< 1000
2,"C[C@H]1N(c2ccc(Cl)cc2)C(=O)N(c2ccc(Cl)cc2)C1(O)c1cccc(C(C)(C)O)c1 (stereo partly drawn) [Compound 140-2, (5R)-1,3-bis(4-chlorophenyl)-4-hydroxy-4-(3-(2-hydroxypropan-2-yl)phenyl)-5-methylimidazolidin-2-one]",1000 to 10000
3,"O=C1N(c2ccc(Cl)cc2)C2(CCOC2)C(O)(c2cccc(OC(F)(F)F)c2)N1c1ccc(Cl)cc1 (centres unmarked) [Compound 234, 1,3-bis(4-chlorophenyl)-4-hydroxy-4-(3-(trifluoromethoxy)phenyl)-7-oxa-1,3-diazaspiro[4.4]nonan-2-one]",< 1000
4,"Cc1ccc(N2CC(O)(c3ccccc3)N(c3ccc(C)cc3)C2=O)cc1 (centres unmarked) [Example 17, 4-hydroxy-4-phenyl-1,3-di-p-tolylimidazolidin-2-one]",1000 to 10000
5,"O=C1N(c2ccc(I)cc2)C(=O)C(O)(c2ccccc2)N1c1ccc(I)cc1 (centres unmarked) [Example 203, 5-hydroxy-1,3-bis(4-iodophenyl)-5-phenylimidazolidine-2,4-dione]",10000 to 50000
6,"CC[C@@H]1N(c2ccc(Cl)cc2)C(=O)N(c2ccc(Cl)cc2)C1(O)c1cccc(OC(F)F)c1 (stereo partly drawn) [Compound 118-1, (5S)-1,3-bis(4-chlorophenyl)-4-(3-(difluoromethoxy)phenyl)-5-ethyl-4-hydroxyimidazolidin-2-one]",< 1000
7,"O=C1N(c2ccc(Cl)cc2)[C@H](c2ccccc2)[C@](O)(CO)N1c1ccc(Cl)cc1 [Example 218-1, (4S,5R)-1,3-bis(4-chlorophenyl)-4-hydroxy-4-(hydroxymethyl)-5-phenylimidazolidin-2-one]",10000 to 50000
8,"O=C1N(c2ccc(Cl)cc2)CC(O)(c2cccc(Cl)c2)N1c1ccc(Cl)cc1 (centres unmarked) [Example 39, 4-(3-chlorophenyl)-1,3-bis(4-chlorophenyl)-4-hydroxyimidazolidin-2-one]",< 1000
9,"CC#Cc1cccc(C2(O)[C@@H](C)N(c3ccc(Cl)cc3)C(=O)N2c2ccc(Cl)cc2)c1 (stereo partly drawn) [Compound 103-2, (5R)-1,3-bis(4-chlorophenyl)-4-hydroxy-5-methyl-4-(3-(prop-1-yn-1-yl)phenyl)imidazolidin-2-one]",< 1000
10,"C[C@@]1(c2cccc(C(F)(F)F)c2)C(O)N(c2ccc(Br)cc2)C(=O)N1c1ccc(Br)cc1 (stereo partly drawn) [Example 219-2, (4R)-1,3-bis(4-bromophenyl)-5-hydroxy-4-methyl-4-(3-(trifluoromethyl)phenyl)imidazolidin-2-one]",< 1000
11,"Cc1c(-c2ccccc2)n(-c2ccc(Br)cc2)c(=O)n1-c1ccc(Br)cc1 [Compound 257, 1,3-bis(4-bromophenyl)-4-methyl-5-phenyl-1,3-dihydro-2H-imidazol-2-one]",< 1000
12,"O=C1N(c2ccc(Cl)cc2)C(c2cccs2)C(O)(c2ccccc2)N1c1ccc(Cl)cc1 (centres unmarked) [Compound 109, 1,3-bis(4-chlorophenyl)-4-hydroxy-4-phenyl-5-(thiophen-2-yl)imidazolidin-2-one]",1000 to 10000
13,Cc1cccc(C2(O)C(C)N(c3ccc(Cl)cc3)C(=O)N2c2ccc(Cl)cc2)c1 (centres unmarked) [Example 36],< 1000
14,"CC(C)C1(c2cccc(C#N)c2)C(O)N(c2ccc(Br)cc2)C(=O)N1c1ccc(Br)cc1 (centres unmarked) [Example 232, 3-(1,3-bis(4-bromophenyl)-5-hydroxy-4-isopropyl-2-oxoimidazolidin-4-yl)benzonitrile]",1000 to 10000
15,"O=C1N(c2ccc(Br)cc2)C(=O)C(O)(c2ccc(OC3CC3)cc2)N1c1ccc(Br)cc1 (centres unmarked) [Example 164, 1,3-bis(4-bromophenyl)-5-(4-cyclopropoxyphenyl)-5-hydroxyimidazolidine-2,4-dione]",> 50000
16,"Cc1ccc(N2C(=O)N(c3ccc(C)cc3)C(O)(c3cccc(C#N)c3)[C@H]2C)cc1 (single isomer, unassigned) [Compound 105-2]",< 1000
17,"COc1ccc(N2C(=O)N(c3ccc(OC)cc3)C(O)(c3cccc(OC(F)(F)F)c3)C2(C)C)cc1 (centres unmarked) [Compound 241, 4-hydroxy-1,3-bis(4-methoxyphenyl)-5,5-dimethyl-4-(3-(trifluoromethoxy)phenyl)imidazolidin-2-one]",< 1000
18,"O=C1N(c2ccc(Br)cc2)CC(O)(c2ccc(Cl)cc2)N1c1ccc(Br)cc1 (centres unmarked) [Example 19, 1,3-bis(4-bromophenyl)-4-(4-chlorophenyl)-4-hydroxyimidazolidin-2-one]",10000 to 50000
19,"Cc1cccc([C@@]2(C)C(O)N(c3ccc(Cl)cc3)C(=O)N2c2ccc(Cl)cc2)c1 (single isomer, unassigned) [Example 222-1]",10000 to 50000
20,"CC1N(c2ccc(Cl)cc2)C(=O)N(c2ccc(Cl)cc2)C1(O)c1cccc(Br)c1 (centres unmarked) [Compound 94, 4-(3-bromophenyl)-1,3-bis(4-chlorophenyl)-4-hydroxy-5-methylimidazolidin-2-one]",< 1000
21,"Cc1c(-c2cccc(Br)c2)n(-c2ccc(Cl)cc2)c(=O)n1-c1ccc(Cl)cc1 [Compound 246, 4-(3-bromophenyl)-1,3-bis(4-chlorophenyl)-5-methyl-1,3-dihydro-2H-imidazol-2-one]",< 1000
22,"O=C1N(c2ccc(Br)cc2)C(O)[C@](c2ccccc2)(C2CC2)N1c1ccc(Br)cc1 (stereo partly drawn) [Example 209-2, (4R)-1,3-bis(4-bromophenyl)-4-cyclopropyl-5-hydroxy-4-phenylimidazolidin-2-one]",< 1000
23,"CC1(C)N(c2ccc(C(F)(F)F)cc2)C(=O)N(c2ccc(C(F)(F)F)cc2)C1(O)c1cccc(C#N)c1 (centres unmarked) [Example 192, 3-(4-hydroxy-5,5-dimethyl-2-oxo-1,3-bis(4-(trifluoromethyl)phenyl)-imidazolidin-4-yl)benzonitrile]",< 1000
24,"CCCc1c(-c2cccc(OC(F)(F)F)c2)n(-c2ccc(Cl)cc2)c(=O)n1-c1ccc(Cl)cc1 [Compound 245, 1,3-bis(4-chlorophenyl)-4-propyl-5-(3-(trifluoromethoxy)phenyl)-1,3-dihydro-2H-imidazol-2-one]",< 1000
25,"O=C1N(c2ccc(Br)cc2)C(=O)C(O)(C2CCOCC2)N1c1ccc(Br)cc1 (centres unmarked) [Example 207, 1,3-bis(4-bromophenyl)-5-hydroxy-5-(tetrahydro-2H-pyran-4-yl)imidazolidine-2,4-dione]",10000 to 50000
26,"CCC[C@@]1(C)N(c2ccc(Cl)cc2)C(=O)N(c2ccc(Cl)cc2)C1(O)c1cccc(OC(F)(F)F)c1 (single isomer, unassigned) [Example 170-1]",10000 to 50000
27,"COc1ccc(N2C(=O)N(c3ccc(OC)cc3)C(O)(c3ccccc3)C2=O)cc1 (centres unmarked) [Example 160, 5-hydroxy-1,3-bis(4-methoxyphenyl)-5-phenylimidazolidine-2,4-dione]",> 50000
28,"N#Cc1cccc(C2(O)C(C3CCC3)N(c3ccc(Cl)cc3)C(=O)N2c2ccc(Cl)cc2)c1 (centres unmarked) [Example 194, 3-(1,3-bis(4-chlorophenyl)-5-cyclobutyl-4-hydroxy-2-oxoimidazolidin-4-yl)benzonitrile]",< 1000
